Assay results as given in publication PMC10620989, “Going beyond Binary: Rapid Identification of Protein–Protein Interaction Modulators Using a Multifragment Kinetic Target-Guided Synthesis Approach” (Journal of Medicinal Chemistry, 2023).
Read-outs that look alike come from different tables or passages of the source.

Experiments:
[1] = target: T1, Mcl-1 (Mus musculus, UniProt P97287); experiment: Binary KTGS incubation (1 TA x 1 SZ) with Mcl-1, LC-MS/MS; settings: binary incubation mixtures with and without Mcl-1
[2] = target: T1, Mcl-1; experiment: Multifragment KTGS screen against Mcl-1 (5 TA x 38 SZ per well), LC-MS/MS; settings: for Amplification coefficient 5TA x 38SZ: multifragment KTGS, 190 combinations per well, 10 μM Mcl-1, 20 μM each fragment, pH 7.4, 37 °C, 10 h, peak area with protein / without protein; for KTGS hit call against Mcl-1: multifragment incubation, 10 µM Mcl-1, LC-MS/MS traces with vs without protein
[3] = target: GST-tagged mouse Mcl-1-(152–309) (Mus musculus, UniProt P97287); experiment: Fluorescence polarization competitive binding assay, GST-Mcl-1 / FITC-Bim-BH3; settings: for inhibition at 50 µM: compound at 50 µM; for inhibition at 100 µM: read-out: inhibition in the fluorescence polarization assay, fragments tested individually
[4] = FP, GST-Mcl-1 and fluorescein-labeled Bim BH3 peptide, read-out: IC50 on Mcl-1

GST-tagged mouse Mcl-1-(152–309), sequence (P97287 152-309): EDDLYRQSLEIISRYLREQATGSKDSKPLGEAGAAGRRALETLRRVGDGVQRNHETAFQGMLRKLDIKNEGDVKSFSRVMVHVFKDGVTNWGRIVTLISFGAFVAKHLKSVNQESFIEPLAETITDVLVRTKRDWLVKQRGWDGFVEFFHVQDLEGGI
T1 sequence (P97287 whole entry, the tested form may be a part): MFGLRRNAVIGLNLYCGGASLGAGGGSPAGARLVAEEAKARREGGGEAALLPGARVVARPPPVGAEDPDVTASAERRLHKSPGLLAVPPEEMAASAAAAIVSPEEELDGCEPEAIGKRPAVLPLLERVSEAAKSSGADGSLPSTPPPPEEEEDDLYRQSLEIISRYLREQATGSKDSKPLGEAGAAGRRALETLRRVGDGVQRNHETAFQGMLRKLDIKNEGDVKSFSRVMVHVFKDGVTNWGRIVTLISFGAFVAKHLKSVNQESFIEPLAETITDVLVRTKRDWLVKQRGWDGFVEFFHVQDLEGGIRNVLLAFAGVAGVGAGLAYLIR

SMILES: O=C(NS(=O)(=O)c1ccc(-c2ccc(Oc3ccccc3)cc2)cc1)c1cccc2ccccc12 [SZ35TA7, O=C(NS(C1=CC=C(C2=CC=C(OC3=CC=CC=C3)C=C2)C=C1)(=O)=O)C4=CC=CC5=C4C=CC=C5]
- Amplification coefficient 1TA x 1SZ [1]: 4
- Amplification coefficient 5TA x 38SZ [2]: 25
- inhibition at 50 µM ([3]; FP): 87.8%

SMILES: Cn1cc(C(=O)C2CCCCC2)c2cc(C(=O)NS(=O)(=O)c3ccc(CN(CCSc4ccccc4)Cc4ccc5c(c4)OCO5)cc3)ccc21 [SZ31TA40, O=C(NS(C1=CC=C(CN(CCSC2=CC=CC=C2)CC3=CC(OCO4)=C4C=C3)C=C1)(=O)=O)C5=CC=C6C(C(C(C7CCCCC7)=O)=CN6C)=C5]
- Amplification coefficient 1TA x 1SZ [1]: 8
- Amplification coefficient 5TA x 38SZ [2]: 56
- inhibition at 50 µM ([3]; FP): -52.4%

SMILES: [N-]=[N+]=NS(=O)(=O)c1ccc(CN(CCSc2ccccc2)Cc2ccc(S(=O)(=O)N=[N+]=[N-])cc2)cc1 [SZ9]
- inhibition at 100 µM [3]: 13%

SMILES: NS(=O)(=O)c1ccc(CN(CCSc2ccccc2)Cc2ccc(S(=O)(=O)NC(=O)c3cccc(NCCc4ccccc4)c3)cc2)cc1 [SZ10TA44, O=C(NS(C1=CC=C(CN(CCSC2=CC=CC=C2)CC3=CC=C(S(=O)(N)=O)C=C3)C=C1)(=O)=O)C4=CC(NCCC5=CC=CC=C5)=CC=C4]
- Amplification coefficient 1TA x 1SZ [1]: 9
- Amplification coefficient 5TA x 38SZ [2]: 12
- inhibition at 50 µM ([3]; FP): 63.4%

SMILES: COc1cccc(CN(CCSc2ccccc2)Cc2ccc(S(=O)(=O)NC(=O)c3ccc(Cc4ccc(OC)c(OC)c4OC)cc3)cc2)c1 [SZ17TA24, O=C(NS(C1=CC=C(CN(CCSC2=CC=CC=C2)CC3=CC(OC)=CC=C3)C=C1)(=O)=O)C4=CC=C(CC5=CC=C(OC)C(OC)=C5OC)C=C4]
- Amplification coefficient 1TA x 1SZ [1]: 5
- Amplification coefficient 5TA x 38SZ [2]: 9
- inhibition at 50 µM ([3]; FP): 74.1%

SMILES: O=C(NS(=O)(=O)c1ccc(CN(CCSc2ccccc2)Cc2c(F)cccc2Cl)cc1)c1ccc(-c2ccc(F)cc2)cc1 [SZ15TA14, O=C(NS(C1=CC=C(CN(CCSC2=CC=CC=C2)CC3=C(F)C=CC=C3Cl)C=C1)(=O)=O)C4=CC=C(C5=CC=C(F)C=C5)C=C4]
- Amplification coefficient 1TA x 1SZ [1]: 6
- Amplification coefficient 5TA x 38SZ [2]: 7
- inhibition at 50 µM ([3]; FP): 58.8%

SMILES: COc1cccc(CN(CCSc2ccccc2)Cc2ccc(S(=O)(=O)NC(=O)Cn3c4ccccc4c4ccccc43)cc2)c1 [SZ17TA15, O=C(NS(C1=CC=C(CN(CC2=CC(OC)=CC=C2)CCSC3=CC=CC=C3)C=C1)(=O)=O)CN4C(C=CC=C5)=C5C6=C4C=CC=C6]
- Amplification coefficient 1TA x 1SZ [1]: 4
- Amplification coefficient 5TA x 38SZ [2]: 13
- inhibition at 50 µM ([3]; FP): 60.6%

SMILES: Cn1cc(C(=O)c2cccs2)c2cc(C(=O)NS(=O)(=O)CCN(CCSc3ccccc3)Cc3ccc4c(c3)OCO4)ccc21 [SZ28TA45, O=C(NS(CCN(CC1=CC=C(OCO2)C2=C1)CCSC3=CC=CC=C3)(=O)=O)C4=CC(C(C(C5=CC=CS5)=O)=CN6C)=C6C=C4]
- Amplification coefficient 1TA x 1SZ [1]: 5
- Amplification coefficient 5TA x 38SZ [2]: 8
- inhibition at 50 µM ([3]; FP): 54%

SMILES: O=C(NS(=O)(=O)c1ccc(-c2ccc(Oc3ccccc3)cc2)cc1)c1ccc(CCc2ccccn2)cc1 [SZ35TA17, O=C(NS(C1=CC=C(C2=CC=C(OC3=CC=CC=C3)C=C2)C=C1)(=O)=O)C4=CC=C(CCC5=NC=CC=C5)C=C4]
- Amplification coefficient 1TA x 1SZ [1]: 9
- Amplification coefficient 5TA x 38SZ [2]: 9
- inhibition at 50 µM ([3]; FP): 89.2%

SMILES: Cn1cc(C(=O)c2cccs2)c2cc(C(=O)NS(=O)(=O)c3ccc(CN(CCSc4ccccc4)Cc4ccc5c(c4)OCO5)cc3)ccc21 [SZ31TA45, O=C(NS(C1=CC=C(CN(CC2=CC(OCO3)=C3C=C2)CCSC4=CC=CC=C4)C=C1)(=O)=O)C5=CC(C(C(C6=CC=CS6)=O)=CN7C)=C7C=C5]
- Amplification coefficient 1TA x 1SZ [1]: 6
- Amplification coefficient 5TA x 38SZ [2]: 25
- inhibition at 50 µM ([3]; FP): 40.2%

SMILES: COc1cccc(CN(CCSc2ccccc2)Cc2ccc(S(=O)(=O)NC(=O)c3ccc(C(c4c[nH]c5ccccc45)c4c[nH]c5ccccc45)cc3)cc2)c1 [SZ17TA31, O=S(C1=CC=C(C=C1)CN(CCSC2=CC=CC=C2)CC3=CC=CC(OC)=C3)(NC(C(C=C4)=CC=C4C(C5=CNC6=C5C=CC=C6)C7=CNC8=C7C=CC=C8)=O)=O]
- Amplification coefficient 1TA x 1SZ [1]: 9
- Amplification coefficient 5TA x 38SZ [2]: 21
- inhibition at 50 µM ([3]; FP): 42.5%

SMILES: O=C(NS(=O)(=O)c1ccc(CN(CCSc2ccccc2)Cc2c(F)cccc2Cl)cc1)c1cccc2ccccc12 [SZ15TA7, O=C(NS(C1=CC=C(CN(CCSC2=CC=CC=C2)CC3=C(F)C=CC=C3Cl)C=C1)(=O)=O)C4=C(C=CC=C5)C5=CC=C4]
- Amplification coefficient 1TA x 1SZ [1]: 9
- Amplification coefficient 5TA x 38SZ [2]: 8
- inhibition at 50 µM ([3]; FP): 98.4%
- IC50 ([3]; IC50 on Mcl-1): 15.4 µM

SMILES: COc1cccc(CN(CCSc2ccccc2)Cc2ccc(S(=O)(=O)NC(=O)c3ccc4c(c3)c(C(=O)c3cccs3)cn4C)cc2)c1 [SZ17TA45, O=C(NS(C1=CC=C(CN(CCSC2=CC=CC=C2)CC3=CC(OC)=CC=C3)C=C1)(=O)=O)C4=CC(C(C(C5=CC=CS5)=O)=CN6C)=C6C=C4]
- Amplification coefficient 1TA x 1SZ [1]: 20
- Amplification coefficient 5TA x 38SZ [2]: 16
- inhibition at 50 µM ([3]; FP): 34.5%

SMILES: CCOc1ccc(-c2ccc3c(c2)c(C(=O)NS(=O)(=O)c2cccc4c(N(C)C)cccc24)cn3C)cc1F [SZ21TA23, O=C(NS(C1=CC=CC2=C1C=CC=C2N(C)C)(=O)=O)C(C3=C4C=CC(C5=CC=C(OCC)C(F)=C5)=C3)=CN4C]
- Amplification coefficient 1TA x 1SZ [1]: 4
- Amplification coefficient 5TA x 38SZ [2]: 7
- inhibition at 50 µM ([3]; FP): 42.8%

SMILES: Cc1cc(OCCCc2c(C(=O)NS(=O)(=O)c3ccc(C(=O)O)o3)[nH]c3c(-c4c(C)nn(C)c4C)c(Cl)ccc23)cc(C)c1Cl [compound 60, O=C(NS(C1=CC=C(C(O)=O)O1)(=O)=O)C2=C(CCCOC3=CC(C)=C(Cl)C(C)=C3)C4=CC=C(Cl)C(C5=C(C)N(C)N=C5C)=C4N2, reference compound]
- inhibition at 50 µM ([3]; FP): > 99%

SMILES: [N-]=[N+]=NS(=O)(=O)c1ccc(CN(CCSc2ccccc2)Cc2ccc(S(=O)(=O)NC(=O)c3ccc(-c4ccccn4)cc3)cc2)cc1 [SZ9TA25, O=C(NS(C1=CC=C(CN(CCSC2=CC=CC=C2)CC3=CC=C(S(=O)(N=[N+]=[N-])=O)C=C3)C=C1)(=O)=O)C4=CC=C(C5=NC=CC=C5)C=C4]
- Amplification coefficient 1TA x 1SZ [1]: 8
- Amplification coefficient 5TA x 38SZ [2]: 15
- inhibition at 50 µM ([3]; FP): 47.6%

SMILES: CC(C)(C)c1ccc(-c2ccc(S(=O)(=O)NC(=O)c3ccccc3)cc2)cc1 [SZ11TA1]
- KTGS hit call against Mcl-1 [2]: non-hit

SMILES: Cc1nc(-c2ccccc2)sc1C(=O)NS(=O)(=O)c1ccc(CN(CCSc2ccccc2)Cc2ccc3c(c2)OCO3)cc1 [SZ31TA3, O=C(NS(C1=CC=C(CN(CCSC2=CC=CC=C2)CC3=CC(OCO4)=C4C=C3)C=C1)(=O)=O)C5=C(C)N=C(C6=CC=CC=C6)S5]
- Amplification coefficient 1TA x 1SZ [1]: 7
- Amplification coefficient 5TA x 38SZ [2]: 15
- IC50 [3, 4]: 9.4 µM
- inhibition at 50 µM ([3]; FP): > 99%

SMILES: COc1ccc(Cc2ccc(C(=O)NS(=O)(=O)c3ccc(CN(CCSc4ccccc4)Cc4c(F)cccc4Cl)cc3)cc2)c(OC)c1OC [SZ15TA24, O=C(NS(C1=CC=C(CN(CCSC2=CC=CC=C2)CC3=C(F)C=CC=C3Cl)C=C1)(=O)=O)C4=CC=C(CC5=CC=C(OC)C(OC)=C5OC)C=C4]
- Amplification coefficient 1TA x 1SZ [1]: 15
- Amplification coefficient 5TA x 38SZ [2]: 20
- inhibition at 50 µM ([3]; FP): 70.8%

SMILES: NS(=O)(=O)c1ccc(CN(CCSc2ccccc2)Cc2ccc(S(=O)(=O)NC(=O)c3ccc4oc(-c5ccccc5)cc4c3)cc2)cc1 [SZ10TA41, O=C(NS(C1=CC=C(CN(CCSC2=CC=CC=C2)CC3=CC=C(S(=O)(N)=O)C=C3)C=C1)(=O)=O)C4=CC(C=C(C5=CC=CC=C5)O6)=C6C=C4]
- Amplification coefficient 1TA x 1SZ [1]: 40
- Amplification coefficient 5TA x 38SZ [2]: 20
- inhibition at 50 µM ([3]; FP): 12.4%

SMILES: O=C(Cn1c2ccccc2c2ccccc21)NS(=O)(=O)c1ccc(CN(CCSc2ccccc2)Cc2c(F)cccc2Cl)cc1 [SZ15TA15, O=C(NS(C1=CC=C(CN(CCSC2=CC=CC=C2)CC3=C(F)C=CC=C3Cl)C=C1)(=O)=O)CN4C(C=CC=C5)=C5C6=C4C=CC=C6]
- Amplification coefficient 1TA x 1SZ [1]: 10
- Amplification coefficient 5TA x 38SZ [2]: 9
- inhibition at 50 µM ([3]; FP): 53.6%

SMILES: COc1cccc(CN(CCSc2ccccc2)Cc2ccc(S(=O)(=O)NC(=O)c3ccc(OC(F)(F)F)cc3)cc2)c1 [SZ17TA8, O=C(NS(C1=CC=C(CN(CCSC2=CC=CC=C2)CC3=CC(OC)=CC=C3)C=C1)(=O)=O)C4=CC=C(OC(F)(F)F)C=C4]
- Amplification coefficient 1TA x 1SZ [1]: 4
- Amplification coefficient 5TA x 38SZ [2]: 8
- IC50 [3, 4]: 8.4 µM
- inhibition at 50 µM ([3]; FP): > 99%

SMILES: O=C(NS(=O)(=O)c1ccc(CN(CCSc2ccccc2)Cc2ccc3c(c2)OCO3)cc1)c1ccc(-c2ccc(F)cc2)cc1 [SZ31TA14, O=C(NS(C1=CC=C(CN(CC2=CC(OCO3)=C3C=C2)CCSC4=CC=CC=C4)C=C1)(=O)=O)C5=CC=C(C6=CC=C(F)C=C6)C=C5]
- Amplification coefficient 1TA x 1SZ [1]: 4
- Amplification coefficient 5TA x 38SZ [2]: 10
- inhibition at 50 µM ([3]; FP): 59.5%

SMILES: Cn1cc(C(=O)C2CCCCC2)c2cc(C(=O)NS(=O)(=O)c3ccc(COc4ccc5c(=O)cc(-c6ccccc6)oc5c4)cc3)ccc21 [SZ14TA40, O=C(NS(C1=CC=C(COC2=CC=C(C(C=C(C3=CC=CC=C3)O4)=O)C4=C2)C=C1)(=O)=O)C5=CC=C6C(C(C(C7CCCCC7)=O)=CN6C)=C5]
- Amplification coefficient 1TA x 1SZ [1]: 15
- Amplification coefficient 5TA x 38SZ [2]: 24
- inhibition at 50 µM ([3]; FP): 93.1%

SMILES: [N-]=[N+]=NS(=O)(=O)c1ccc(NCCSc2ccccc2)c([N+](=O)[O-])c1 [SZ4]
- inhibition at 100 µM [3]: 23%

SMILES: COc1ccc(Cc2ccc(C(=O)NS(=O)(=O)c3ccc(-c4ccc(Oc5ccccc5)cc4)cc3)cc2)c(OC)c1OC [SZ35TA24, O=C(NS(C1=CC=C(C2=CC=C(OC3=CC=CC=C3)C=C2)C=C1)(=O)=O)C4=CC=C(CC5=CC=C(OC)C(OC)=C5OC)C=C4]
- Amplification coefficient 1TA x 1SZ [1]: 8
- Amplification coefficient 5TA x 38SZ [2]: 9
- inhibition at 50 µM ([3]; FP): 76.4%

SMILES: CC(=O)Nc1ccc(S(=O)(=O)NC(=O)Cn2c3ccccc3c3ccccc32)cc1 [SZ3TA15]
- KTGS hit call against Mcl-1 [2]: non-hit
